Laboratory results reported in patent publication US10702492B2, “PPARα activator, pharmaceutical composition, food and drink, food additive, supplement and method of manufacturing the same” (Marukome Co., Ltd., priority 2015, dated 2020).
“Also recorded” adds a separate entry of the source.

Legend:
human PPARα = target: T1, human PPARα (Homo sapiens, UniProt Q07869); test: PPARα luciferase assay; format: cell-based; conditions: CV-1 cells, 1.3 μM, 24 hours after the addition; FIG. 6 and FIG. 7
T1 construct: expressed in transfected cells; host or cells: CV-1 cells
T1 sequence (Q07869 239-466 limits assumed): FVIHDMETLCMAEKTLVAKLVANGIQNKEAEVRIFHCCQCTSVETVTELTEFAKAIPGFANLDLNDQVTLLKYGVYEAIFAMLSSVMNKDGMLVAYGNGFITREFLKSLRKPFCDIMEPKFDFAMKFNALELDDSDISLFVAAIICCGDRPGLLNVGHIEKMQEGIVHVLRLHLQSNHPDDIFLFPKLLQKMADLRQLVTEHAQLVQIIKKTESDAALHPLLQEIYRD
Experimental: The PPARα activity of koji extract 1 was evaluated by PPARα luciferase assay. The assay was performed by a method as previously described (T. Goto et al., Biochemical and Biophysical Research Communications 337(2005) 440-445).
Specifically, CV-1 cells that were transfected with p4×UASg-tk-luc (reporter plasmid), pM-hPPARα (expression vector for DNA-binding domain of GAL4 and ligand-binding domain of human PPARα for chimeric protein), pRL-CMV (internal control for normalizing transfection efficiency) and Lipofectamine™ Reagent. The cells were cultured in a DMEM culture medium containing 10% FBS and penicillin/streptomycin (10 mg/mL).
The CV-1 cells were transfected with the vector with Lipofectamine and cultured for 24 hours. Then, the medium was replaced with a medium added with 0.1 mg/mL, 0.5 mg/mL or 5 mg/mL of the concentrated koji extract 1 with 70% ethanol (dilution rate: 50 times), respectively, and the CV-1 cells were further cultured for 24 hours. The measurement of luciferase activity was performed by using Dual-Luciferase(R) Reporter Assay System (Promega) and a luminometer (MicroLumat Plus, Berthold Japan Co., Ltd.) according to the protocols of the reagent and the luminometer.
As a positive control, a medium added with […] of a known PPARα agonist, GW-7647 (2-[4-[2-[1-(4-cyclohexylbutyl)-3-cyclohexylureido]ethyl]phenylthio]isobutyric acid) was used. […]

[1] = tested on: mouse primary-cultured hepatocytes; test: TG accumulation in mouse primary-cultured hepatocytes (TG kit); format: cell-based; conditions: 24 hours, 500 μM oleic acid medium, vs. negative control (CT+), FIG. 8
Experimental: The effect on the accumulation of triglyceride ([…]) of a koji extract was evaluated by using mouse primary-cultured hepatocytes and koji extract 1 used in Example 1.
Primary-cultured hepatocytes were prepared from hepatocytes separated from C57BL/6J mice (6 week old, male), and were seeded in a 12-well plate (2×10^5 cells/ml). After confirming the attachment of the cells to the plate at 3-5 hours after the seeding, the medium was replaced with a serum-free medium (low-glucose DMEM, 1% P/S, 500 μM oleic acid, 20 μg/mL BSA). At this time, koji extract 1 was added in an amount of 0.1 mg/mL or 1 mg/mL. As a positive control, a medium added with GW-7647 ([…]) was used.
At 24 hours after the addition, the amount of TG accumulation of the primary-cultured hepatocytes was measured with a TG kit (Wako). […] The error bar refers to SE (n=4), * is p<0.05, ** is p<0.01 (vs. control).
The effect on triglyceride (TG) accumulation of 9-HODE:10E,12E was evaluated by using mouse primary-cultured hepatocytes.
Primary-cultured hepatocytes were prepared from hepatocytes separated from C57BL/6J mice (6 week old, male), and seeded in a 12-well plate (2×10^5 cells/ml). […]
At 24 hours after the addition, the accumulation amount of TG was measured by using a TG kit (Wako). […]

Q: Which PPARα activity (human PPARα) does the source give for `CCCCC/C=C/C=C/C(O)CCCCCCCC(=O)O` (stereo not drawn) [9-HODE:10E,12E, 9-hydroxy-10,12-octadecadienoic acid] here?
A: remarkably high; also recorded: relatively high

Q: And the “accumulation amount of TG” value ([1]; 3 μM)?
A: significant decrease

Q: And the “accumulation amount of TG” value ([1]; 10 μM)?
A: significant decrease
